Experimental findings from patent US9018242B2, “Salt form of tyrosine kinase inhibitor” (Jiangsu Simcere Pharmaceutical R&D Co., Ltd, priority 2011, dated 2015) are described below.

Converted amounts (≈) assume the structure as drawn.

A short description of data set [1]: Hygroscopicity measurement (weight gain). The class given is physicochemical. As to conditions: 25±1° C., relative humidity 80±2%, 24 hours. As for the experimental part:
The method for measuring the hygroscopicity may include: placing a certain amount of a sample to be tested into a precisely weighed glass weighing bottle (m1) with a plug and precisely weighing (m2); placing the opened weighing bottle into a thermostatic dryer (with saturated ammonium sulfate solution placed at the bottom, with a relative humidity of 80±2%) at 25±1° C. for 24 hours; covering the weighing bottle with the plug and precisely weighing (m3), and calculating the percent of weight gain of the sample to be tested according to the following equation: […]
The measurement method includes: placing a certain amount of sample to be tested into a precisely weighed glass weighing bottle (m1) with a plug and precisely weighing (m2); placing the opened weighing bottle in a thermostated dryer (with saturated ammonium sulfate solution placed at the bottom, with a relative humidity of 80±2%) at 25±1° C. for 24 hours; covering the weighing bottle with the plug and precisely weighing (m3).
Characterization of the hygroscopicity and definition of the hygroscopic weight gain:
Deliquescence: sufficient moisture was absorbed to form liquid;
Slight hygroscopicity: hygroscopic weight gain was less than 2% and not less than 0.2%: […]

A short description of data set [2]: Solubility in water by HPLC. The class given is physicochemical. Particulars: thermodynamic from solid; purified water, 25° C. The procedure: Liquid chromatograph: Agilent 1200 HPLC system (diode array detector), ChemStation
Mobile phase: acetonitrile/water
Detection wavelength: 264 nm
About 100 mg sample to be tested was precisely weighed and placed into a 100 ml graduated flask at 25° C.; an appropriate amount of solvent [acetonitrile/water (80:20)] was added to dissolve the sample under ultrasonic sound, and the solution was diluted to a given scale and shaken up; 10 μl resulting solution was precisely measured and loaded into the liquid chromatograph, the chromatogram was recorded, and the peak area Scontrol was measured.
10 ml purified water was measured and placed into a 25 ml Kjeldahl flask. The sample to be tested was gradually added at 25° C. until an insoluble solid appeared in the solution. The solution was treated under ultrasonic sound for 30 min and the insoluble solid was filtered off. 10 μl filtrate was precisely weighed and loaded into the liquid chromatograph, the chromatogram was recorded, and the peak area Stest was measured.

The nature of data set [3]: Plasma exposure (AUC) in rats after gavage administration. The class given is in vivo. As to conditions: rat, po, male SD rats, 10 mg/kg (based on pharmaceutically active compound), salts dissolved in pure water, active compound as suspension in 0.5% CMC, up to 24 h. The procedure: Laboratory animal: male SD rats
Dosage: 10 mg/kg (based on pharmaceutically active compound)
Formulation for salts: dissolving in pure water
(§1) Formulation for pharmaceutically active compound: suspension in CMC (carboxymethylcellulose), 0.5%
Animal Grouping and Testing Course:
Each group includes three male rats having a weight of 180 to 210 g. Gavage administration was performed; the blood was collected at point of time: 5 min, 15 min, 30 min, 45 min, 1 h, 2 h, 4 h, 6 h, 10 h and 24 h; about 250 μl blood was collected from orbital venous plexus into a heparin-containing tube, centrifuged, and 100 μl plasma was used for LC-MS analysis.

Data set [4] relates to human colon cancer HT-29 xenografts. Put plainly: Therapeutic effect on human colon cancer HT-29 xenografts in nude mice. As to conditions: 40 mg/kg (based on pharmaceutically active compound), gavage for 21 days, L-malate in pure water, active compound as suspension in 0.5% CMC. The data set is classed as in vivo, BALB/cA-nude mice. As for the experimental part: Laboratory animal: BALB/cA-nude mice, 6-7 weeks, ♀
Dosage: 40 mg/kg (based on pharmaceutically active compound)
Formulation for L-malate: dissolving in pure water
as §1
Nude mice were subcutaneously inoculated with human colon cancer HT-29 cells. After the tumor grew to a size of 150 to 250 mm^3, the animals were randomly divided into three groups (d0). The animals were continuously administered through gavage for 21 days, and the tumor volume was measured 2 to 3 times per week. The tumor volume (V) was calculated according to the equation: V=1/2×a×b^2, where a and b represent length and width respectively.
The relative proliferation of tumor=T/C(%)=(T−T0)/(C−C0)×100, where T and C are the tumor volumes at the end of experiment, T0 and C0 are the tumor volumes at the start of experiment; the tumor inhibition rate=1−T/C(%).
A general note: In xenograft studies the graft and the host belong to different species.

Broadly, the solubility is the dissolved amount per volume that the medium holds. As usually defined, the AUC(0-t) is the area under the concentration-time curve up to a stated or last time point. Turning to `CCN(CC)CCNC(=O)c1c(C)[nH]c2c1CCC/C2=C1/C(=O)Nc2ccc(F)cc21.O=C(O)C[C@H](O)C(=O)O` [L-malate, (Z)—N-[2-(diethylamino)ethyl]-2-methyl-7-(1,2-dihydro-5-fluoro-2-oxo-3H-indol-3-ylidene)-4,5,6,7-tetrahydro-1H-indol-3-carboxamide L-malate], in data set [1], the Hygroscopicity result is listed as “Almost no hygroscopicity”. The molecule further gave a solubility at 30 min in data set [2] of 38.6 mg/mL. Moreover, the AUC(0-t) in data set [3] stood at 1490 ng·h/mL. The “Tumor Inhibition Rate” value in data set [4] is 54%.
The like results for `CCN(CC)CCNC(=O)c1c(C)[nH]c2c1CCC/C2=C1/C(=O)Nc2ccc(F)cc21` [Pharmaceutically active compound, (Z)—N-[2-(diethylamino)ethyl]-2-methyl-7-(1,2-dihydro-5-fluoro-2-oxo-3H-indol-3-ylidene)-4,5,6,7-tetrahydro-1H-indol-3-carboxamide] were, in that order, “Almost no hygroscopicity”, 0.02 mg/mL (≈ 47.1 µM), 128 ng·h/mL and 40%.
